Tests used:
[1] = target: T1, human recombinant cyclooxygenase COX-2 (Homo sapiens, UniProt P35354); assay: Inhibition of COX2 (Ampliflu Red spectrofluorescence); assay type: biochemical; settings: 10 μM, compared with untreated group
T1 construct: host or cells: insect Sf21 cells
T1 sequence (P35354 18-604): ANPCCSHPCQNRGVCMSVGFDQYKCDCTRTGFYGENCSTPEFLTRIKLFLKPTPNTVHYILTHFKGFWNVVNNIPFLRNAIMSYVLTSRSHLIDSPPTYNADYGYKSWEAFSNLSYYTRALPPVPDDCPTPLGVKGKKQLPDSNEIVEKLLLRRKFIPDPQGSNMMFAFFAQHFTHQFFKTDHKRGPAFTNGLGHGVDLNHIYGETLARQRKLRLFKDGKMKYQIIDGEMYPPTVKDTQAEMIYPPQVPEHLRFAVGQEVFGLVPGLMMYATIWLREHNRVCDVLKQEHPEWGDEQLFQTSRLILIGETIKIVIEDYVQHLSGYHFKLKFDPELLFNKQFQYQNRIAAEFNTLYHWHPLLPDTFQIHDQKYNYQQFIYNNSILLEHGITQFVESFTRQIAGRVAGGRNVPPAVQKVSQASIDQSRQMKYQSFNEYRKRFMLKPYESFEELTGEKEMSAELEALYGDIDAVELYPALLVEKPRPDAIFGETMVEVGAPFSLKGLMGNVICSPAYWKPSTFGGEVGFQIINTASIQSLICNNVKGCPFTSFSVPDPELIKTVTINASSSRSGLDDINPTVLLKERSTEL
Description: At this time, the concentration of the calcium salt contained in the buffer solution was set to 10 μM. As an enzyme, 34 U/mL of human recombinant cyclooxygenase COX-2 expressed in insect Sf21 cells was further added to the buffer solution, and pre-reacted at 25° C. for 15 minutes. In addition, 3 μM arachidonic acid and 100 μM Ampliflu Red were added and reacted at 25° C. for 3 minutes. The amount of Resofurin produced in the reaction process was measured at 535 nm/590 nm by a spectrofluorescence method, and the inhibitory effect on COX2 was confirmed by comparing with the calcium salt untreated group.

MyHC = MyHC expression in mouse muscle tissue, CT26 cachexia model; assay type: in vivo, Balb/c mice; settings: CT26 Balb/c cachexia model, 21 days; G4 PO 200 mpk, G5 IV 100 mpk, G6 IV 200 mpk; vs vehicle control G2
Description: The mice were sacrificed, and the skeletal muscle in the quadriceps was extracted during autopsy, and tissue was homogenized, and proteins were extracted through RIPA lysis buffer, followed by Western blot analysis.

O=C([O-])C(Cl)Cl.O=C1OC(C(O)CO)C([O-])=C1O.[Ca+2] (centres unmarked) [Preparation Example 1, calcium salts of ascorbic acid and dichloroacetic acid]
inhibitory effect on COX2 [1]: 74%
expression level of MyHC in quadriceps (MyHC): increase in the expression levels

Source: patent US20240408057A1, “Composition for preventing or treating cachexia and muscle loss” (METAFINES.CO.LTD., priority 2023, published 2024)
